From ChEMBL document CHEMBL3046907, “Microwave-assisted synthesis of pyrido[1,2-a]benzimidazole derivatives of -aryloxyquinoline and their antimicrobial and antituberculosis activities” (2013)
Converted amounts (≈) assume the structure as drawn.

How the values were obtained:
Assay type in all cases: functional
[1] = system: Mycobacterium tuberculosis; experiment: Antitubercular activity against Mycobacterium tuberculosis H37Rv after 28 days by Lowenstein-Jensen method; conditions: 672 h
[2] = system: Mycobacterium tuberculosis; experiment: Growth inhibition of Mycobacterium tuberculosis H37Rv at 6.25 ug/ml after 28 days by Lowenstein-Jensen method; conditions: 672 h, read-out: GI
Candida albicans = experiment: Antifungal activity against Candida albicans MTCC 227 after overnight incubation by broth microdilution method
Aspergillus fumigatus = experiment: Antifungal activity against Aspergillus fumigatus MTCC 3008 after overnight incubation by broth microdilution method
Vibrio cholerae = experiment: Antibacterial activity against Vibrio cholerae MTCC 3906 after overnight incubation by broth microdilution method
Salmonella typhi = experiment: Antibacterial activity against Salmonella enterica subsp. enterica serovar Typhi MTCC 98 after overnight incubation by broth microdilution method
Escherichia coli = experiment: Antibacterial activity against Escherichia coli MTCC 443 after overnight incubation by broth microdilution method
Clostridium tetani = experiment: Antibacterial activity against Clostridium tetani MTCC 449 after overnight incubation by broth microdilution method
Streptococcus pneumoniae = experiment: Antibacterial activity against Streptococcus pneumoniae MTCC 1936 after overnight incubation by broth microdilution method
Bacillus subtilis = experiment: Antibacterial activity against Bacillus subtilis MTCC 441 after overnight incubation by broth microdilution method

Structure (SMILES) | MIC [1] | inhibition of growth at 6.25 µg/mL [2] | MIC99 (Candida albicans) | MIC99 (Aspergillus fumigatus) | MIC99 (Vibrio cholerae) | MIC99 (Salmonella typhi) | MIC99 (Escherichia coli) | MIC99 (Clostridium tetani) | MIC99 (Streptococcus pneumoniae) | MIC99 (Bacillus subtilis)
COc1ccc2nc(Oc3ccc(F)cc3)c(-c3c(C#N)c(N)n4c(nc5cc(C)ccc54)c3C#N)cc2c1 | 12.5 µg/mL (≈ 24.3 µM) | 96% | 500 µg/mL (≈ 972 µM) | 1000 µg/mL (≈ 1940 µM) | 200 µg/mL (≈ 389 µM) | 200 µg/mL (≈ 389 µM) | 100 µg/mL (≈ 194 µM) | 100 µg/mL (≈ 194 µM) | 100 µg/mL (≈ 194 µM) | 250 µg/mL (≈ 486 µM)
Cc1ccc2nc(Oc3ccc(F)cc3)c(-c3c(C#N)c(N)n4c(nc5cc(C)ccc54)c3C#N)cc2c1 | 12.5 µg/mL (≈ 25.1 µM) | 97% | > 1000 µg/mL | > 1000 µg/mL | 100 µg/mL (≈ 201 µM) | 200 µg/mL (≈ 401 µM) | 200 µg/mL (≈ 401 µM) | 100 µg/mL (≈ 201 µM) | 200 µg/mL (≈ 401 µM) | 250 µg/mL (≈ 501 µM)
COc1ccc2nc(Oc3ccc(C)cc3)c(-c3c(C#N)c(N)n4c(nc5cc(C)ccc54)c3C#N)cc2c1 |  | 10% | 1000 µg/mL (≈ 1960 µM) | > 1000 µg/mL | 125 µg/mL (≈ 245 µM) | 100 µg/mL (≈ 196 µM) | 200 µg/mL (≈ 392 µM) | 200 µg/mL (≈ 392 µM) | 100 µg/mL (≈ 196 µM) | 125 µg/mL (≈ 245 µM)
Cc1ccc2nc(Oc3ccccc3)c(-c3c(C#N)c(N)n4c(nc5cc(C)ccc54)c3C#N)cc2c1 |  | 71% | 500 µg/mL (≈ 1040 µM) | > 1000 µg/mL | 200 µg/mL (≈ 416 µM) | 250 µg/mL (≈ 520 µM) | 250 µg/mL (≈ 520 µM) | 250 µg/mL (≈ 520 µM) | 100 µg/mL (≈ 208 µM) | 500 µg/mL (≈ 1040 µM)
COc1ccc(Oc2nc3ccc(C)cc3cc2-c2c(C#N)c(N)n3c(nc4cc(C)ccc43)c2C#N)cc1 |  | 25% | 1000 µg/mL (≈ 1960 µM) | > 1000 µg/mL | 200 µg/mL (≈ 392 µM) | 250 µg/mL (≈ 490 µM) | 250 µg/mL (≈ 490 µM) | 100 µg/mL (≈ 196 µM) | 125 µg/mL (≈ 245 µM) | 125 µg/mL (≈ 245 µM)
CCn1cc(C(=O)O)c(=O)c2cc(F)c(N3CCNCC3)cc21 [NORFLOXACIN] |  |  |  |  | 10 µg/mL (≈ 31.3 µM) | 10 µg/mL (≈ 31.3 µM) | 10 µg/mL (≈ 31.3 µM) | 50 µg/mL (≈ 157 µM) | 10 µg/mL (≈ 31.3 µM) | 100 µg/mL (≈ 313 µM)
Cc1ccc2c(c1)nc1c(C#N)c(-c3cc4ccccc4nc3Oc3ccc(F)cc3)c(C#N)c(N)n12 | 6.25 µg/mL (≈ 12.9 µM) | 99% | 250 µg/mL (≈ 516 µM) | > 1000 µg/mL | 500 µg/mL (≈ 1030 µM) | 125 µg/mL (≈ 258 µM) | 62.5 µg/mL (≈ 129 µM) | 250 µg/mL (≈ 516 µM) | 100 µg/mL (≈ 206 µM) | 500 µg/mL (≈ 1030 µM)
COc1ccc(Oc2nc3ccccc3cc2-c2c(C#N)c(N)n3c(nc4ccccc43)c2C#N)cc1 |  | 24% | 250 µg/mL (≈ 518 µM) | 500 µg/mL (≈ 1040 µM) | 125 µg/mL (≈ 259 µM) | 200 µg/mL (≈ 415 µM) | 125 µg/mL (≈ 259 µM) | 250 µg/mL (≈ 518 µM) | 200 µg/mL (≈ 415 µM) | 250 µg/mL (≈ 518 µM)
Cc1ccc2nc(Oc3ccc(F)cc3)c(-c3c(C#N)c(N)n4c(nc5ccccc54)c3C#N)cc2c1 | 25 µg/mL (≈ 51.6 µM) | 94% | 250 µg/mL (≈ 516 µM) | 500 µg/mL (≈ 1030 µM) | 250 µg/mL (≈ 516 µM) | 250 µg/mL (≈ 516 µM) | 200 µg/mL (≈ 413 µM) | 250 µg/mL (≈ 516 µM) | 200 µg/mL (≈ 413 µM) | 250 µg/mL (≈ 516 µM)
Cc1ccc2c(c1)nc1c(C#N)c(-c3cc4ccccc4nc3Oc3ccccc3)c(C#N)c(N)n12 |  | 49% | 500 µg/mL (≈ 1070 µM) | 500 µg/mL (≈ 1070 µM) | 500 µg/mL (≈ 1070 µM) | 200 µg/mL (≈ 429 µM) | 100 µg/mL (≈ 214 µM) | 250 µg/mL (≈ 536 µM) | 250 µg/mL (≈ 536 µM) | 200 µg/mL (≈ 429 µM)
CO[C@H]1/C=C/O[C@@]2(C)Oc3c(C)c(O)c4c(O)c(c(/C=N/N5CCN(C)CC5)c(O)c4c3C2=O)NC(=O)/C(C)=C\C=C\[C@H](C)[C@H](O)[C@@H](C)[C@@H](O)[C@@H](C)[C@H](OC(C)=O)[C@@H]1C [RIFAMPIN] | 40 µg/mL (≈ 48.6 µM) | 98% |  |  |  |  |  |  |  | 
NNC(=O)c1ccncc1 [ISONIAZID] | 0.2 µg/mL (≈ 1.46 µM) | 99% |  |  |  |  |  |  |  | 
N#Cc1c(-c2cc3ccccc3nc2Oc2ccccc2)c(C#N)c2nc3ccccc3n2c1N |  | 80% | 1000 µg/mL (≈ 2210 µM) | 500 µg/mL (≈ 1110 µM) | 200 µg/mL (≈ 442 µM) | 250 µg/mL (≈ 553 µM) | 250 µg/mL (≈ 553 µM) | 100 µg/mL (≈ 221 µM) | 62.5 µg/mL (≈ 138 µM) | 100 µg/mL (≈ 221 µM)
COc1ccc2nc(Oc3ccccc3)c(-c3c(C#N)c(N)n4c(nc5cc(C)ccc54)c3C#N)cc2c1 |  | 78% | 1000 µg/mL (≈ 2010 µM) | 500 µg/mL (≈ 1010 µM) | 250 µg/mL (≈ 503 µM) | 100 µg/mL (≈ 201 µM) | 62.5 µg/mL (≈ 126 µM) | 250 µg/mL (≈ 503 µM) | 250 µg/mL (≈ 503 µM) | 250 µg/mL (≈ 503 µM)
COc1ccc(Oc2nc3ccc(OC)cc3cc2-c2c(C#N)c(N)n3c(nc4cc(C)ccc43)c2C#N)cc1 |  | 70% | 500 µg/mL (≈ 950 µM) | > 1000 µg/mL | 125 µg/mL (≈ 237 µM) | 250 µg/mL (≈ 475 µM) | 200 µg/mL (≈ 380 µM) | 200 µg/mL (≈ 380 µM) | 200 µg/mL (≈ 380 µM) | 100 µg/mL (≈ 190 µM)
